Measured values from ChEMBL document CHEMBL5360653, “Marine Alkaloid Lepadins E and H Induce Ferroptosis for Cancer Chemotherapy” (J Med Chem, 2023).
The source made the active and inactive calls. The calls are words filed in the database; no cut-off is given here.

Tests used:
[1] = system: HeLa; assay: Induction of apoptosis in human HeLa cells assessed as early apoptotic cells incubated at 4 uM for 24 hrs measured by annexin V-PI staining based FITC analysis (reference value: 3.59%); type: functional
[2] = Toxicity in immunocompetent C57BL/6J mouse allografted with B16-F10 cells assessed as change in body weight administered at 30 mg/kg, ip daily for 14 days measured every 3 days; type: organism-based; conditions: in vivo, 336 h, time 14 day
[3] = system: HeLa; assay: Induction of ROS generation in human HeLa cells assessed as increase in ROS level at 6 to 10 uM; type: functional, cell-based; conditions: dose 6-10 µM
[4] = system: HeLa; assay: Induction of apoptosis in human HeLa cells assessed as early apoptotic cells incubated at 8 uM for 24 hrs measured by annexin V-PI staining based FITC analysis (reference value: 3.59%); type: functional
[5] = system: HeLa; assay: Induction of ROS generation in human HeLa cells assessed as increase in ROS level at 10 uM incubated for 1 hrs (reference value: 39.6%); type: functional
[6] = system: HeLa; assay: Induction of apoptosis in human HeLa cells assessed as viable cells incubated at 10 uM for 24 hrs measured by annexin V-PI staining based FITC analysis (reference value: 94.2%); type: functional; conditions: read-out: Activity
[7] = system: HeLa; assay: Induction of ferroptosis in human HeLa cells assessed as disappearance of mitochondrial cristae measured at 6 uM for 24 hrs by transmission electron microscopic analysis; type: functional, cell-based
[8] = Toxicity in immunocompetent C57BL/6J mouse allografted with B16-F10 cells assessed as tissue damage in kidney administered at 30 mg/kg, ip daily for 14 days by hematoxylin and eosin staining analysis; type: organism-based; conditions: in vivo, 336 h, time 14 day
[9] = system: HeLa; assay: Induction of ROS generation in human HeLa cells assessed as increase in ROS level at 20 uM incubated for 0.5 hrs (reference value: 39.6%); type: functional
[10] = system: HeLa; assay: Induction of apoptosis in human HeLa cells assessed as early apoptotic cells preincubated with PFTalpha followed by compound addition at 10 uM for 24 hrs measured by annexin V-PI staining based FITC analysis (reference value: 2.72%); type: functional
[11] = system: HeLa; assay: Induction of ferroptosis in human HeLa cells assessed as increase of ACSL4 level measured at 4 to 10 uM for 24 hrs by Western blotting analysis; type: functional, cell-based; conditions: dose 4-10 µM
[12] = system: HeLa; assay: Induction of apoptosis in human HeLa cells assessed as necrotic cells incubated at 4 uM for 24 hrs measured by annexin V-PI staining based FITC analysis (reference value: 0.70%); type: functional
[13] = Toxicity in immunocompetent C57BL/6J mouse allografted with B16-F10 cells assessed as change of organ index in lungs administered at 30 mg/kg, ip daily for 14 days by hematoxylin and eosin staining analysis; type: organism-based; conditions: in vivo, 336 h, time 14 day
[14] = system: HeLa; assay: Induction of apoptosis in human HeLa cells assessed as late apoptotic cells incubated at 10 uM for 24 hrs measured by annexin V-PI staining based FITC analysis (reference value: 2.3%); type: functional
[15] = Toxicity in immunocompetent C57BL/6J mouse allografted with B16-F10 cells assessed as tissue damage in spleen administered at 30 mg/kg, ip daily for 14 days by hematoxylin and eosin staining analysis; type: organism-based; conditions: in vivo, 336 h, time 14 day
[16] = system: B16-F10; assay: Induction of ferroptosis in mouse B16-F10 cells assessed as downregulation of GPX4 level measured at 4 to 10 uM by Western blotting analysis; type: functional, cell-based; conditions: dose 4-10 µM
[17] = system: HeLa; assay: Induction of ferroptosis in human HeLa cells assessed as downregulation of SLC7A11 level measured at 4 to 10 uM for 24 hrs by Western blotting analysis; type: functional, cell-based; conditions: dose 4-10 µM
[18] = system: HeLa; assay: Induction of ferroptosis in human HeLa cells assessed as reduction of mitochondrion volume measured at 6 uM for 24 hrs by transmission electron microscopic analysis; type: functional, cell-based
[19] = system: HeLa; assay: Induction of apoptosis in human HeLa cells assessed as late apoptotic cells incubated at 6 uM for 24 hrs measured by annexin V-PI staining based FITC analysis (reference value: 1.81%); type: functional
[20] = system: HeLa; assay: Induction of ROS generation in human HeLa cells assessed as increase in ROS level at 10 uM incubated for 0.5 hrs (reference value: 39.6%); type: functional
[21] = Toxicity in immunocompetent C57BL/6J mouse allografted with B16-F10 cells assessed as change of organ index in thymus administered at 30 mg/kg, ip daily for 14 days by hematoxylin and eosin staining analysis; type: organism-based; conditions: in vivo, 336 h, time 14 day
[22] = Toxicity in immunocompetent C57BL/6J mouse allografted with B16-F10 cells assessed as change of organ index in liver administered at 30 mg/kg, ip daily for 14 days by hematoxylin and eosin staining analysis; type: organism-based; conditions: in vivo, 336 h, time 14 day
[23] = system: HeLa; assay: Induction of ferroptosis in human HeLa cells assessed as decrease in cellular GSH level measured at 4 uM for 24 hrs by transmission electron microscopic analysis; type: functional, cell-based
[24] = system: HeLa; assay: Induction of ROS generation in human HeLa cells assessed as increase in ROS level at 10 uM incubated for 1 hrs (reference value: 37.8%); type: functional
[25] = system: HeLa; assay: Induction of apoptosis in human HeLa cells assessed as necrotic cells incubated at 10 uM for 24 hrs measured by annexin V-PI staining based FITC analysis (reference value: 1.6%); type: functional
[26] = system: HeLa; assay: Induction of ROS generation in human HeLa cells assessed as increase in ROS level at 20 uM incubated for 1 hrs (reference value: 37.8%); type: functional
[27] = system: HeLa; assay: Induction of apoptosis in human HeLa cells assessed as late apoptotic cells incubated at 8 uM for 24 hrs measured by annexin V-PI staining based FITC analysis (reference value: 1.54%); type: functional
[28] = system: HeLa; assay: Induction of apoptosis in human HeLa cells assessed as late apoptotic cells preincubated with PFTalpha followed by compound addition at 10 uM for 24 hrs measured by annexin V-PI staining based FITC analysis (reference value: 3.45%); type: functional
[29] = system: HeLa; assay: Induction of apoptosis in human HeLa cells assessed as late apoptotic cells incubated at 4 uM for 24 hrs measured by annexin V-PI staining based FITC analysis (reference value: 1.54%); type: functional
[30] = system: HeLa; assay: Induction of apoptosis in human HeLa cells assessed as late apoptotic cells incubated at 10 uM for 24 hrs measured by annexin V-PI staining based FITC analysis (reference value: 3.45%); type: functional
[31] = system: HeLa; assay: Induction of apoptosis in human HeLa cells assessed as early apoptotic cells incubated at 4 uM for 24 hrs measured by annexin V-PI staining based FITC analysis (reference value: 3.94%); type: functional
[32] = system: HeLa; assay: Induction of ferroptosis in human HeLa cells assessed as decrease in cellular GSH level measured at 6 uM for 24 hrs by transmission electron microscopic analysis; type: functional, cell-based
[33] = system: HeLa; assay: Induction of ROS generation in human HeLa cells assessed as increase in ROS level at 10 uM incubated for 0.5 hrs (reference value: 37.8%); type: functional
[34] = system: HeLa; assay: Induction of apoptosis in human HeLa cells assessed as early apoptotic cells incubated at 10 uM for 24 hrs measured by annexin V-PI staining based FITC analysis (reference value: 3.28%); type: functional
[35] = system: HeLa; assay: Induction of apoptosis in human HeLa cells assessed as early apoptotic cells incubated at 10 uM for 24 hrs measured by annexin V-PI staining based FITC analysis (reference value: 3.94%); type: functional

## CCC/C=C/C=C/C(=O)O[C@@H]1C[C@H]2[C@@H](CCCC[C@H](O)CCC)CCC[C@H]2N[C@H]1C
[1]
  Activity: 4.56%
[2]
  Activity: Non-Toxic
[3]
  Activity: Active
[4]
  Activity: 21.1%
[5]
  Activity: 81.5%
[6]
  viability at 10 µM: 20.6%
[7]
  Activity: Active
[8]
  Activity: Non-Toxic
[9]
  Activity: 84.4%
[10]
  Activity: 30.5%
[11]
  Activity: Active
[12]
  Activity: 1.14%
[13]
  Activity: Non-Toxic
[14]
  Activity: 45.3%
[15]
  Activity: Non-Toxic
[16]
  Activity: Active
[17]
  Activity: Active
[18]
  Activity: Active
[19]
  Activity: 3.94%
[20]
  Activity: 77.7%
[21]
  Activity: Non-Toxic
[22]
  Activity: Non-Toxic
[23]
  Activity: Active

## CCCCC/C=C/C(=O)O[C@@H]1C[C@H]2[C@@H](CCCC[C@H](O)CCC)CCC[C@H]2N[C@H]1C
[24]
  Activity: 62.3%
[25]
  Activity: 5.06%
[26]
  Activity: 86.9%
[27]
  Activity: 23.7%
[28]
  Activity: 26.9%
[29]
  Activity: 2.73%
[30]
  Activity: 31.4%
[31]
  Activity: 5.32%
[32]
  Activity: Active
[33]
  Activity: 55.1%
[34]
  Activity: 35.6%
[35]
  Activity: 22.7%
